Experimental data reported in patent publication US9023635B2, “Bacterial methods” (Imperial Innovations Limited, priority 2010, dated 2015).

What was measured:
[1] = test system: PrkC-SAV expressing spores with biotinylated azide and alkyne; conditions: all click reaction components present; FIG. 26
Description: For all PrkC-SAV spore reactions, 100 nM of biotinylated ‘sensor’ was added to 100 μl reactions of spores at a concentration of OD600 ˜1. […] All reactions were carried out at room temperature. Controls for PrkC-SAV spore experiments omitted each reagent/parameter tested and the affect on germination was assessed. After addition of germinant, terbium was added to a final concentration of 5 μM and fluorescence visualized on a UV transilluminator (Biorad), at periodic time points. A DPA standard was imaged using known concentrations and correlated to fluorescent pixels.
PrkC-SAV expressing spores were incubated in the presence of biotinylated azide and alkyne groups with copper (FIG. 25). DPA release, i.e. germination, was measured by fluorescence in the presence of terbium as described in previous Examples.

[2] = test system: bacterial spore with prkC intracellular and transmembrane domain and the extracellular EPOR domain; assay: Germination of bacterial spores expressing chimeric prkC-EPOR receptor; assay type: cell-based, Bacillus subtilis
[3] = test system: bacterial spores in the absence of the chimeric protein; assay: Germination of bacterial spores in the absence of the prkC-EPOR chimeric protein; assay type: cell-based, Bacillus subtilis
[4] = test system: prkC-SAV spores with complementary biotinylated oligos; assay: Germination of prkC-SAV spores with structure-switching anti-thrombin aptamers; assay type: cell-based; conditions: FIG. 30
Description: Hall et al (2009) describe a method for protein detection using structure switching aptamers. The well-known example of thrombin as a target, described in the Introduction by Hall et al, was utilised to assess the use of bacterial spores as an alternative readout to release of a quencher from a fluorophore, as illustrated in FIGS. 29-30.

[5] = test system: prkC-SAV spores with biotinylated aptamers; assay: Germination of prkC-SAV spores with biotinylated anti-PDGF aptamers; assay type: cell-based; conditions: FIG. 28
Description: Presence of the target protein results in binding of the protein by the aptamers, dimerisation of the prkC proteins, and germination of the spores, which can be detected, for example, using methods described in previous Examples.

O=S(=O)([O-])[O-].[Cu+2] [copper, copper (II) sulfate]
germination (DPA release) versus controls omitting azide/alkyne or copper [1]: significant increase in germination

erythropoietin [EPO]
germination efficiency with increased concentration ([2]; FIG. 13, increased concentration of EPO): increase in germination efficiency | germination of spores ([2]; spores expressing prkC-EPOR chimera): stimulation of germination | germination of spores [3]: does not stimulate the germination

thrombin
target protein concentration of optimal detection [4]: 100 nm

B1: PDGF-BB: platelet derived growth factor, in the BB homodimer form (protein, UniProt P01127 82-190, looked up)
Platelet-derived growth …: SLGSLTIAEPAMIAECKTRTEVFEISRRLIDRTNANFLVWPPCVEVQRCSGCCNNRNVQCRPTQVQLRPVQVRKIEIVRKKPIFKKATVTLEDHLACKCETVAAARPVT
modifications: BB homodimer
notes: platelet derived growth factor, in the BB homodimer form
target protein concentration of optimal detection [5]: 0.1 nM
